According to patent US10508120B2, “TYK2 inhibitors and uses thereof” (Nimbus Lakshmi, Inc., priority 2017, dated 2019):

Molecular target: human TYK2 (JH2domain-pseudokinase) (Homo sapiens (Human), UniProt P29597)
Experiment: TYK2 JH2 Domain Binding Assay (KINOMEscan)
Protocol: Binding constants for compounds of the present invention against the JH2 domain were determined by the following protocol for a KINOMEscan® assay (DiscoveRx). A fusion protein of a partial length construct of human TYK2 (JH2domain-pseudokinase) (amino acids G556 to D888 based on reference sequence NP_003322.3) and the DNA binding domain of NFkB was expressed in transiently transfected HEK293 cells. From these HEK 293 cells, extracts were prepared in M-PER extraction buffer (Pierce) in the presence of Protease Inhibitor Cocktail Complete (Roche) and Phosphatase Inhibitor Cocktail Set II (Merck) per manufacturers' instructions. The TYK2 (JH2domain-pseudokinase) fusion protein was labeled with a chimeric double-stranded DNA tag containing the NFkB binding site (5′-[…]-3′) fused to an amplicon for qPCR readout, which was added directly to the expression extract (the final concentration of DNA-tag in the binding reaction is 0.1 nM).
The liganded beads were blocked with excess biotin and washed with blocking buffer (SeaBlock (Pierce), 1% BSA, 0.05% Tween 20, 1 mM DTT) to remove unbound ligand and to reduce nonspecific binding.
Extracts were used directly in binding assays without any enzyme purification steps at a ≥10,000-fold overall stock dilution (final DNA-tagged enzyme concentration <0.1 nM). Extracts were loaded with DNA-tag and diluted into the binding reaction in a two step process. First extracts were diluted 1:100 in 1× binding buffer (PBS/0.05% Tween 20/10 mM DTT/0.1% BSA/2 μg/ml sonicated salmon sperm DNA) containing 10 nM DNA-tag. This dilution was allowed to equilibrate at room temperature for 15 minutes and then subsequently diluted 1:100 in 1× binding buffer. […] Kds were determined using an 11-point 3-fold compound dilution series with three DMSO control points. […] The compounds were then diluted directly into the assays such that the final concentration of DMSO was 0.9%. All reactions performed in polypropylene 384-well plates. Each was a final volume of 0.02 mL. Assays were incubated with shaking for 1 hour at room temperature. Then the beads were pelleted and washed with wash buffer (1×PBS, 0.05% Tween 20) to remove displaced kinase and test compound. […] The qPCR protocol consisted of a 10 minute hot start at 95° C., followed by 35 cycles of 95° C. for 15 seconds, 60° C. for 1 minute.
Kds were determined using an 11-point 3-fold compound dilution series with three DMSO control points. […] The compounds were then diluted directly into the assays such that the final concentration of DMSO was 0.9%. The Kds were determined using a compound top concentration of 30,000 nM. Kd measurements were performed in duplicate.
Binding constants (Kds) were calculated with a standard dose-response curve using the Hill equation: […]
The Hill Slope was set to −1.

Chain of human TYK2 (JH2domain-pseudokinase) (P29597 556-888): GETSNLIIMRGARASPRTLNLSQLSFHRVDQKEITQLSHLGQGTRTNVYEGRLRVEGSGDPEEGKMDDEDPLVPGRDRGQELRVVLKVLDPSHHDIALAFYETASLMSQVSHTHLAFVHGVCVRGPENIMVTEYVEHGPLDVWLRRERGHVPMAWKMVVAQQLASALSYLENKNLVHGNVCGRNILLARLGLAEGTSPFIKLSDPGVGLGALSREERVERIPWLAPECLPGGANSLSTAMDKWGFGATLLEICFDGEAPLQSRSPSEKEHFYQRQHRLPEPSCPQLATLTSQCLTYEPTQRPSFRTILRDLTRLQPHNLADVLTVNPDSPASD

Row | Kd [nM] | Compound
1 | 0.2 to 1 | CNc1cc(Nc2cccn(-c3nc(C)co3)c2=O)nc2c(C(=O)NC(C)(C)C#N)cnn12 [I-1260]
2 | 0.2 to 1 | CNc1cc(Nc2cccn3ccnc23)nc2c(C(=O)N[C@@H]3COC[C@@H]3O)cnn12 [I-1261]
3 | 1 to 10 | CNc1cc(Nc2cccn3ccnc23)nc2c(C(=O)N[C@H]3COC[C@H]3O)cnn12 [I-1262]
4 | < 0.2 | CNc1cc(Nc2cccn(C3CCOCC3)c2=O)nc2c(C(=O)N[C@H]3CC[C@@H](O)C3)cnn12 [I-1263]
5 | 1 to 10 | CNc1cc(Nc2cccn(C3CCOCC3)c2=O)nc2c(C(=O)N[C@@H]3CC[C@H](O)C3)cnn12 [I-1264]
6 | 1 to 10 | CNc1cc(Nc2cccn(C(C)C)c2=O)nc2c(C(=O)N[C@H]3CC[C@@H](O)C3)cnn12 [I-1265]
7 | < 0.2 | CNc1cc(Nc2cccn(C(C)C)c2=O)nc2c(C(=O)N[C@@H]3CC[C@H](O)C3)cnn12 [I-1266]
8 | < 0.2 | CNc1cc(-c2cn([C@@H]3CCCOC3)c3ncccc23)nc2c(C(=O)N[C@@H]3CC[C@H]3OC)cnn12 [I-1267]
9 | > 10 | CNc1cc(-c2cn([C@@H]3CCCOC3)c3ncccc23)nc2c(C(=O)N[C@H]3CC[C@@H]3OC)cnn12 [I-1268]
10 | 0.2 to 1 | CNc1cc(Nc2cccn([C@@H]3CCCOC3)c2=O)nc2c(C(=O)N[C@@H]3C[C@H]3OC)cnn12 [I-1269]
11 | 1 to 10 | CNc1cc(Nc2cccn([C@@H]3CCCOC3)c2=O)nc2c(C(=O)N[C@H]3C[C@@H]3OC)cnn12 [I-1270]
12 | < 0.2 | CNc1cc(Nc2cccn([C@H]3C[C@@H]3OC)c2=O)nc2c(C(=O)NC3CC3)cnn12 [I-1271]
13 | 1 to 10 | CNc1cc(Nc2cccn([C@H]3C[C@@H]3OC)c2=O)nc2c(C(=O)N[C@@H]3C[C@@H]3F)cnn12 [I-1272]
14 | > 10 | CNc1cc(-c2cn(C3CCOCC3)c3ncccc23)nc2c(C(=O)N[C@H]3CCCC[C@]3(C)O)cnn12 [I-1273]
15 | < 0.2 | CNc1cc(Nc2cccn(-c3nn(C)cc3F)c2=O)nc2c(C(=O)NC3CC3)cnn12 [I-1275]
16 | 0.2 to 1 | CNc1cc(Nc2cccn(C(C)C)c2=O)nc2c(C(=O)N[C@@H]3CCCC[C@@]3(C)O)cnn12 [I-1276]
17 | < 0.2 | CNc1cc(Nc2cccn(C(C)C)c2=O)nc2c(C(=O)N[C@H]3CCCC[C@]3(C)O)cnn12 [I-1277]
18 | 0.2 to 1 | CNc1cc(Nc2cccn([C@H]3C[C@@H]3F)c2=O)nc2c(C(=O)N[C@H]3CC[C@@H]3O)cnn12 [I-1278]
19 | < 0.2 | CNc1cc(Nc2cccn([C@H]3C[C@@H]3F)c2=O)nc2c(C(=O)N[C@@H]3CC[C@H]3O)cnn12 [I-1279]
20 | < 0.2 | CNc1cc(-c2cn(C3CC3)c3ncccc23)nc2c(C(=O)N[C@@H]3CCC[C@@]3(C)O)cnn12 [I-1280]
21 | 0.2 to 1 | CNc1cc(-c2cn(C3CC3)c3ncccc23)nc2c(C(=O)N[C@H]3CCC[C@]3(C)O)cnn12 [I-1281]
22 | 1 to 10 | CNc1cc(-c2cn([C@H]3CCCOC3)c3ncccc23)nc2c(C(=O)N[C@@H]3CC[C@H]3OC)cnn12 [I-1282]
23 | 0.2 to 1 | CNc1cc(Nc2cccn([C@H]3CC[C@H]3O)c2=O)nc2c(C(=O)N[C@@H]3C[C@@H]3F)cnn12 [I-1284]
24 | < 0.2 | CNc1cc(Nc2cccn(-c3ccccn3)c2=O)nc2c(C(=O)N[C@H]3C[C@@H]3OC)cnn12 [I-1287]
25 | < 0.2 | CNc1cc(Nc2cccn(-c3cccnc3)c2=O)nc2c(C(=O)N[C@@H]3CCC[C@@H](OC)C3)cnn12 [I-1288]
26 | 1 to 10 | CNc1cc(Nc2cccn(-c3ccc(C)nc3)c2=O)nc2c(C(=O)N[C@H]3CCC[C@H](OC)C3)cnn12 [I-1289]
27 | > 10 | CNc1cc(Nc2cccn(C3CCOCC3)c2=O)nc2c(C(=O)N[C@@H]3CCC[C@@H](O)C3)cnn12 [I-1290]
28 | 1 to 10 | CNc1cc(Nc2cccn([C@H]3CC[C@@H](OC)CC3)c2=O)nc2c(C(=O)N[C@H]3CC[C@@H]3O)cnn12 [I-1291]
29 | < 0.2 | CNc1cc(Nc2cccn([C@H]3CC[C@@H](OC)CC3)c2=O)nc2c(C(=O)N[C@H]3CC[C@H]3O)cnn12 [I-1292]
30 | < 0.2 | CCO[C@@H]1CC[C@H]1NC(=O)c1cnn2c(NC)cc(Nc3cccn(-c4ccccn4)c3=O)nc12 [I-1294]
